# Read-outs that look alike come from different tables or passages of the source.
# Key:
# Experiment in all cases: Ras-Raf disruption / FRET / MOA assay (BRAF RBD)
# Type in all cases: biochemical
# [1] = target: KRAS Q61H (Homo sapiens, UniProt P01116+P62937, Q61H)
# Outline: (§1)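 Compound-induced Ras–Cyclophilin A ternary complex disrupting BRAF RBD binding, read as IC50 from reduced TR-FRET ratio relative to DMSO. Final: Ras-GMPPNP 12.5 nM, BRAF RBD 50 nM, Cyclophilin A 25 μM, top compound 30 μM (3-fold, 10 points); 3 h at 25 °C, then 1.5 h with detection antibodies.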
# [2] = target: KRAS G13C (Homo sapiens, UniProt P01116+P62937, G13C); details: with Cyclophilin A
# Outline: as §1
# [3] = target: NRAS WT (Homo sapiens, UniProt P01111+P62937)
# Outline: as §1
# [4] = target: NRAS Q61R (Homo sapiens, UniProt P01111+P62937, Q61R)
# Outline: as §1
# [5] = target: NRAS Q61K (Homo sapiens, UniProt P01111+P62937, Q61K)
# Outline: as §1
# [6] = target: KRAS G12S (Homo sapiens, UniProt P01116+P62937, G12S); details: with Cyclophilin A
# Outline: as §1
# [7] = target: KRAS G12D (Homo sapiens, UniProt P01116+P62937, G12D); details: with Cyclophilin A
# Outline: as §1
# [8] = target: KRAS G13D (Homo sapiens, UniProt P01116+P62937, G13D); details: with Cyclophilin A
# Outline: as §1
# [9] = target: KRAS G12V (Homo sapiens, UniProt P01116+P62937, G12V); details: with Cyclophilin A
# Outline: as §1
# [10] = target: NRAS G12C (Homo sapiens, UniProt P01111+P62937, G12C)
# Outline: as §1
# [11] = target: KRAS WT (Homo sapiens, UniProt P01116+P62937); details: with Cyclophilin A
# Outline: as §1
# [12] = target: KRAS G12C (Homo sapiens, UniProt P01116+P62937, G12C); details: with Cyclophilin A
# Outline: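 TR-FRET read-out after 1.5 h with anti-His Eu-W1024 (10 nM) and anti-GST APC (50 nM), following 3 h at 25 °C of compound (top 30 μM, 3-fold, 10 points) with 25 μM Cyclophilin A, 12.5 nM GMPPNP-loaded K-Ras G12C and 50 nM BRAF RBD; IC50 reported.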
# [13] = KRAS Q61H, read-out: KRAS Q61H FRET data IC50
# [14] = Ras-Raf disruption, read-out: KRAS G13C FRET data IC50
# [15] = NRAS WT, read-out: NRAS WT FRET data IC50
# [16] = NRAS Q61R, read-out: NRAS Q61R FRET data IC50
# [17] = NRAS Q61K, read-out: NRAS Q61K FRET data IC50
# [18] = Ras-Raf disruption, read-out: KRAS G12S FRET data IC50
# [19] = Ras-Raf disruption, read-out: KRAS G12D FRET data IC50
# [20] = Ras-Raf disruption, read-out: KRAS G13D FRET data IC50
# [21] = Ras-Raf disruption, read-out: KRAS G12V FRET data IC50
# [22] = NRAS G12C, read-out: NRAS G12C FRET data IC50
# [23] = Ras-Raf disruption, read-out: KRAS WT FRET data IC50
# [24] = Ras-Raf disruption, read-out: KRAS G12C FRET data IC50
# [25] = KRAS G13C FRET data IC50, Ras-Raf disruption
# [26] = KRAS G12S FRET data IC50, Ras-Raf disruption
# [27] = KRAS G12D FRET data IC50, Ras-Raf disruption
# [28] = KRAS G13D FRET data IC50, Ras-Raf disruption
# [29] = KRAS G12V FRET data IC50, Ras-Raf disruption
# [30] = NRAS G12C FRET data IC50, NRAS G12C
# [31] = KRAS WT FRET data IC50, Ras-Raf disruption
# [32] = KRAS G12C FRET data IC50, Ras-Raf disruption
# Sequence of KRAS WT (P01116 1-169 isoform P01116-2 limits assumed): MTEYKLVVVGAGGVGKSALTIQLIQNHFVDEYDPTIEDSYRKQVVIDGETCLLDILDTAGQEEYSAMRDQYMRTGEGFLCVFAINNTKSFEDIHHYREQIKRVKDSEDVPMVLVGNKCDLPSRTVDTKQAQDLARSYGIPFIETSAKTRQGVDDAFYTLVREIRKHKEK
# Sequence of KRAS WT (P62937 whole entry): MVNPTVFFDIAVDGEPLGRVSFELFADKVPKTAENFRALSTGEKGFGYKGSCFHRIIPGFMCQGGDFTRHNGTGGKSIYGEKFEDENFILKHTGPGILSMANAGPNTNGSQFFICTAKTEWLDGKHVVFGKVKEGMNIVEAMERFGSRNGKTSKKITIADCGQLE
# Sequence of NRAS G12C (P01111 whole entry G12C): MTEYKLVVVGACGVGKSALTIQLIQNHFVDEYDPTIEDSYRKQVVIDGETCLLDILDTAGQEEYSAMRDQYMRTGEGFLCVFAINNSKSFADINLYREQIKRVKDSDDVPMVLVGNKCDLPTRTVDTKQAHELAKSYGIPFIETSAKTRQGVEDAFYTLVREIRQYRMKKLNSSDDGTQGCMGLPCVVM
# Sequence of NRAS G12C (P62937 whole entry): as the sequence (P62937 whole entry) above
# Sequence of NRAS Q61K (P01111 whole entry Q61K): as the sequence (P01111 whole entry G12C) above, with C12G, Q61K counted along it
# Sequence of NRAS Q61K (P62937 whole entry): as the sequence (P62937 whole entry) above
# Sequence of KRAS G12C (P01116 1-169 isoform P01116-2 G12C limits assumed): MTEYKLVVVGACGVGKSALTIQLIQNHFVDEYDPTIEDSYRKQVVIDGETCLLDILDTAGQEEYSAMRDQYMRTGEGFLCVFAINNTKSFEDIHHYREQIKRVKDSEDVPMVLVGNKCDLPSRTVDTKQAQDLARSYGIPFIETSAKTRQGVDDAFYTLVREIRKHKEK
# Sequence of KRAS G12C (P62937 whole entry): as the sequence (P62937 whole entry) above
# Sequence of KRAS G12S (P01116 1-169 isoform P01116-2 G12S limits assumed): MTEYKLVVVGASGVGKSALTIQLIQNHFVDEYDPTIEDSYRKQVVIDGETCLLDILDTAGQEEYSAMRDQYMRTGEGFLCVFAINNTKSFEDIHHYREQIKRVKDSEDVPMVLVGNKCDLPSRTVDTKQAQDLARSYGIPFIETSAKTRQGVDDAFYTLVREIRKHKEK
# Sequence of KRAS G12S (P62937 whole entry): as the sequence (P62937 whole entry) above
# Sequence of NRAS Q61R (P01111 whole entry Q61R): as the sequence (P01111 whole entry G12C) above, with C12G, Q61R counted along it
# Sequence of NRAS Q61R (P62937 whole entry): as the sequence (P62937 whole entry) above
# Sequence of NRAS WT (P01111 whole entry): as the sequence (P01111 whole entry G12C) above, with C12G counted along it
# Sequence of NRAS WT (P62937 whole entry): as the sequence (P62937 whole entry) above
# Sequence of KRAS G13C (P01116 1-169 isoform P01116-2 G13C limits assumed): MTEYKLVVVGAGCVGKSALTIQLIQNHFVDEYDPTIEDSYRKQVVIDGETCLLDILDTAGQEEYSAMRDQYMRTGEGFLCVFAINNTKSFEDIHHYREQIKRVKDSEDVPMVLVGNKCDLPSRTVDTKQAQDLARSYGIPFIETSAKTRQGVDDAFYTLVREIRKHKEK
# Sequence of KRAS G13C (P62937 whole entry): as the sequence (P62937 whole entry) above
# Sequence of KRAS G13D (P01116 1-169 isoform P01116-2 G13D limits assumed): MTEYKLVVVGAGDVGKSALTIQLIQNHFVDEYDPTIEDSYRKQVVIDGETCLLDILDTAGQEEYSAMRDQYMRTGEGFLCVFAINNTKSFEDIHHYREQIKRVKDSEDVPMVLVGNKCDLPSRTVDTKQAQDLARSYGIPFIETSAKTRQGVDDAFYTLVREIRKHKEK
# Sequence of KRAS G13D (P62937 whole entry): as the sequence (P62937 whole entry) above
# Sequence of KRAS G12V (P01116 1-169 isoform P01116-2 G12V limits assumed): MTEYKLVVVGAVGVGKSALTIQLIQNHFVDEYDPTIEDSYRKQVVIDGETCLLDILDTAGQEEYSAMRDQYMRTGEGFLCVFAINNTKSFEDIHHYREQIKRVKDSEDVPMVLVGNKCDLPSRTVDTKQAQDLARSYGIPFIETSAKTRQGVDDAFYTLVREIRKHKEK
# Sequence of KRAS G12V (P62937 whole entry): as the sequence (P62937 whole entry) above
# Sequence of KRAS Q61H (P01116 1-169 isoform P01116-2 Q61H limits assumed): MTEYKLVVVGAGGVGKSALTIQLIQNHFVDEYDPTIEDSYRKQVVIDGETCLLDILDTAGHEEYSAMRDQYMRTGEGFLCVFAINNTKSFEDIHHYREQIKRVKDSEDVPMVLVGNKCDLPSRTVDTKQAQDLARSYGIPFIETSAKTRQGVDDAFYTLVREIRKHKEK
# Sequence of KRAS Q61H (P62937 whole entry): as the sequence (P62937 whole entry) above
# Sequence of KRAS G12D (P01116 1-169 isoform P01116-2 G12D limits assumed): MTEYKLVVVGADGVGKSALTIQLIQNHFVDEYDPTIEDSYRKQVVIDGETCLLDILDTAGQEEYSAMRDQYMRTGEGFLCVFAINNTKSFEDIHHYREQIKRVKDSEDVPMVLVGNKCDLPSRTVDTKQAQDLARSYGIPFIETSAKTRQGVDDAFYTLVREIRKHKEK
# Sequence of KRAS G12D (P62937 whole entry): as the sequence (P62937 whole entry) above
SMILES,"IC50 [1, 13]","IC50 [2, 14]","IC50 [3, 15]","IC50 [4, 16]","IC50 [5, 17]","IC50 [6, 18]","IC50 [7, 19]","IC50 [8, 20]","IC50 [9, 21]","IC50 [10, 22]","IC50 [11, 23]","IC50 [12, 24]",also measured
CCn1c(-c2cccnc2[C@H](C)OC)c2c3cc(ccc31)-c1csc(n1)C[C@H](NC(=O)[C@H](C(C)C)N(C)C(=O)N1CCN(C(=O)[C@H]3CN3)C[C@H]1C)C(=O)N1CCC[C@H](N1)C(=O)OCC(C)(C)C2 [Example 301],0.01 to 0.1 µM,0.01 to 0.1 µM,0.01 to 0.1 µM,0.01 to 0.1 µM,0.01 to 0.1 µM,0.01 to 0.1 µM,0.1 to 1 µM,0.1 to 1 µM,0.1 to 1 µM,0.01 to 0.1 µM,0.01 to 0.1 µM,0.01 to 0.1 µM,–
"CCn1c(-c2cccnc2[C@H](C)OC)c2c3cc(ccc31)-c1cc(O)cc(c1)C[C@H](NC(=O)[C@H](C(C)C)N(C)C(=O)N1CC[C@H](N(C)C(=O)[C@@H]3CN3)C1)C(=O)N1CCC[C@H](N1)C(=O)OCC(C)(C)C2 (atropisomer, axis not shown) [Example 255]",0.01 to 0.1 µM,0.01 to 0.1 µM,0.01 to 0.1 µM,0.1 to 1 µM,0.1 to 1 µM,0.01 to 0.1 µM,0.1 to 1 µM,0.1 to 1 µM,0.1 to 1 µM,0.01 to 0.1 µM,0.1 to 1 µM,0.01 to 0.1 µM,–
"CCn1c(-c2cccnc2[C@H](C)OC)c2c3cc(ccc31)-c1csc(n1)C[C@H](NC(=O)[C@H](C(C)C)N(C)C(=O)N1CC(CN(C)C(=O)[C@H]3CN3)C1)C(=O)N1CCC[C@H](N1)C(=O)OCC(C)(C)C2 (atropisomer, axis not shown) [Example 224]",0.01 to 0.1 µM,0.1 to 1 µM,0.01 to 0.1 µM,0.01 to 0.1 µM,0.01 to 0.1 µM,0.1 to 1 µM,0.1 to 1 µM,0.1 to 1 µM,0.1 to 1 µM,0.01 to 0.1 µM,0.1 to 1 µM,0.01 to 0.1 µM,–
"CCn1c(-c2cccnc2[C@H](C)OC)c2c3cc(ccc31)-c1csc(n1)C[C@H](NC(=O)[C@H](C(C)C)N(C)C(=O)N(C)CC1CN(C(=O)[C@@H]3CN3)C1)C(=O)N1CCC[C@H](N1)C(=O)OCC(C)(C)C2 (atropisomer, axis not shown) [Example 294]",0.01 to 0.1 µM,0.1 to 1 µM,0.1 to 1 µM,0.1 to 1 µM,0.01 to 0.1 µM,0.1 to 1 µM,0.1 to 1 µM,0.1 to 1 µM,0.1 to 1 µM,0.01 to 0.1 µM,0.1 to 1 µM,0.01 to 0.1 µM,–
CCn1c(-c2cc(N3CCN(C)CC3)cnc2[C@H](C)OC)c2c3cc(ccc31)-c1cc(O)cc(c1)C[C@H](NC(=O)[C@H](C1CCCC1)N(C)C(=O)CN(C)C(=O)[C@@H]1N[C@@H]1C1CC1)C(=O)N1CCC[C@H](N1)C(=O)OCC(C)(C)C2 [Example 325],–,–,–,–,–,–,–,–,–,–,–,–,"IC50 [1]: < 0.01 µM; IC50 [2, 25]: < 0.01 µM; IC50 [3]: < 0.01 µM; IC50 [4]: 0.01 to 0.1 µM; IC50 [5]: 0.01 to 0.1 µM; IC50 [6, 26]: < 0.01 µM; IC50 [7, 27]: < 0.01 µM; IC50 [8, 28]: 0.01 to 0.1 µM; IC50 [9, 29]: < 0.01 µM; IC50 [10, 30]: < 0.01 µM; IC50 [11, 31]: < 0.01 µM; IC50 [12, 32]: < 0.01 µM"
"CCn1c(-c2cccnc2[C@H](C)OC)c2c3cc(ccc31)-c1csc(n1)C[C@H](NC(=O)[C@H](C(C)C)N(C)C(=O)N1CC[C@@H](N(C)C(=O)[C@H]3CN3)C1)C(=O)N1CCC[C@H](N1)C(=O)OCC(C)(C)C2 (atropisomer, axis not shown) [Example 226]",0.1 to 1 µM,0.1 to 1 µM,0.1 to 1 µM,0.1 to 1 µM,0.1 to 1 µM,0.1 to 1 µM,1 to 10 µM,0.1 to 1 µM,0.1 to 1 µM,0.1 to 1 µM,0.1 to 1 µM,0.1 to 1 µM,–
"CCn1c(-c2cccnc2[C@H](C)OC)c2c3cc(ccc31)-c1cc(O)cc(c1)C[C@H](NC(=O)[C@H](C(C)C)N(C)C(=O)[C@]1(F)CCN(C(=O)[C@H]3CN3)C1)C(=O)N1CCC[C@H](N1)C(=O)OCC(C)(C)C2 (atropisomer, axis not shown) [Example 311]",0.01 to 0.1 µM,0.01 to 0.1 µM,0.01 to 0.1 µM,0.1 to 1 µM,0.1 to 1 µM,0.1 to 1 µM,0.1 to 1 µM,0.1 to 1 µM,0.1 to 1 µM,< 0.01 µM,0.1 to 1 µM,< 0.01 µM,–
"CCn1c(-c2cccnc2[C@H](C)OC)c2c3cc(ccc31)-c1cc(O)cc(c1)C[C@H](NC(=O)[C@H](C(C)C)N(C)C(=O)N1CC[C@@H](N(C)C(=O)[C@@H]3CN3)C1)C(=O)N1CCC[C@H](N1)C(=O)OCC(C)(C)C2 (atropisomer, axis not shown) [Example 253]",0.01 to 0.1 µM,0.01 to 0.1 µM,0.01 to 0.1 µM,0.1 to 1 µM,0.1 to 1 µM,0.1 to 1 µM,0.1 to 1 µM,0.1 to 1 µM,0.1 to 1 µM,0.01 to 0.1 µM,0.01 to 0.1 µM,0.01 to 0.1 µM,–
CCn1c(-c2cccnc2[C@H](C)OC)c2c3cc(ccc31)-c1cc(O)cc(c1)C[C@H](NC(=O)[C@H](C1CCCC1)N(C)C(=O)CN(C)C(=O)[C@@H]1N[C@@H]1C1CC1)C(=O)N1CCC[C@H](N1)C(=O)OCC(C)(C)C2 [Example 170],–,–,–,–,–,–,–,–,–,–,–,–,"IC50 [1]: 0.01 to 0.1 µM; IC50 [2, 25]: 0.01 to 0.1 µM; IC50 [3]: 0.01 to 0.1 µM; IC50 [4]: 0.01 to 0.1 µM; IC50 [5]: 0.01 to 0.1 µM; IC50 [6, 26]: 0.01 to 0.1 µM; IC50 [7, 27]: 0.01 to 0.1 µM; IC50 [8, 28]: 0.01 to 0.1 µM; IC50 [9, 29]: 0.01 to 0.1 µM; IC50 [10, 30]: 0.01 to 0.1 µM; IC50 [11, 31]: 0.01 to 0.1 µM; IC50 [12, 32]: 0.01 to 0.1 µM"

# From US20230233569A1 (Revolution Medicines, Inc., priority 2020, published 2023)
